Results reported in patent publication US8247211B2, “Glycopeptide antibiotics” (American Cyanamid Company, priority 2001, dated 2012).
Values after ≈ are worked out from the molar mass of the structure shown.

Experiments:
[1] = system: Staphylococcus aureus-SMITH (GC 4543); experiment: Acute lethal infection in mice (ED50); assay type: in vivo; details: female CD-1 mice, intraperitoneal challenge, intravenous dose 30 min. after infection, 7 day survival ratios
In short: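 IP bacterial challenge, female CD-1 mice; inoculum lethal to untreated controls in 24-48 hr. IV dosing in saline or 5% dextrose 30 min post-infection, 5 mice/dose. ED50 from 7-day survival, 3 tests pooled.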

[2] = system: Staphylococcus sp.; experiment: In vitro antibacterial evaluation: minimum inhibitory concentration (MIC), broth dilution method; assay type: cell-based
In short: (§1)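 First, organisms are seeded at 5×10^5 CFU/mL into Muller-Hinton II […]. Next, antibiotic is applied across 64-0.06 μg/mL by broth dilution (NCCLS M7-A2). Finally, the lowest inhibitory concentration is recorded as MIC.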

[3] = system: Enterococcus sp.; experiment: as above; assay type: cell-based
In short: as §1

[4] = system: Escherichia coli; experiment: as above; assay type: cell-based
In short: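 Using Muller-Hinton II […] and an inoculum of 5×10^5 CFU/mL, antibiotic dilutions from 64 down to 0.06 μg/mL were tested following NCCLS M7-A2. The MIC is the lowest concentration inhibiting growth, including in methicillin-, penicillin- or vancomycin-resistant clinical isolates.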

[5] = system: Streptococcus sp.; experiment: as above; assay type: cell-based
In short: as §1

[6] = broth dilution, 5×10^5 CFU/mL, 18 hours at 35° C.
[7] = strain ATCC 29213, broth dilution, 18 hours at 35° C.
[8] = strain GC 1131, broth dilution, 18 hours at 35° C.
[9] = strain GC 3051, broth dilution, 18 hours at 35° C.
[10] = strain GC 3053, broth dilution, 18 hours at 35° C.
[11] = strain GC 4541, broth dilution, 18 hours at 35° C.
[12] = strain GC 4542, broth dilution, 18 hours at 35° C.
[13] = strain GC 4543, broth dilution, 18 hours at 35° C.
[14] = strain GC 4544, broth dilution, 18 hours at 35° C.
[15] = strain GC 4545, broth dilution, 18 hours at 35° C.
[16] = strain GC 4546, broth dilution, 18 hours at 35° C.
[17] = strain GC 4547, broth dilution, 18 hours at 35° C.
[18] = strain GC 4548, broth dilution, 18 hours at 35° C.
[19] = strain GC 4549, broth dilution, 18 hours at 35° C.
[20] = strain GC 4551, broth dilution, 18 hours at 35° C.
[21] = strain GC 6257, broth dilution, 18 hours at 35° C.
[22] = 5×10^5 CFU/mL, 18 hours at 35° C.

## COc1cccc(C2OCC3OC(OC4C(CO)OC(Oc5ccc(CC6NC(=O)C(C(C)c7ccccc7)NC(=O)CNC(=O)C(CO)NC(=O)C(C(O)C7CNC(=N)N7C7OC(CO)C(O)C(O)C7O)NC(=O)C(C(O)C7CNC(=N)N7)NC6=O)cc5)C(O)C4O)C(O)C(O)C3O2)c1 (stereo not drawn) [Example 137, Cyclo[glycyl-β-methylphenylalanyl-O-[4-O-[4,6-O-(3-methoxybenzylidene)hexopyranosyl]-hexopyranosyl]-tyrosyl-3-(2-iminoimidazolidin-4-yl)seryl-3-(3-hexopyranosyl-2-iminoimidazolidin-4-yl)serylseryl]]
[1]
  median effective dose (ED50), Staphylococcus aureus-SMITH (GC 4543): 0.24 mg/kg
[2]; [6]
  MIC Coagulase Negative Staphylococcus (GC 4547): 1 to 2 µg/mL
  MIC Coagulase Negative Staphylococcus (GC 4548): 0.5 to 2 µg/mL
  MIC Coagulase Negative Staphylococcus (GC 4549): 0.5 to 1 µg/mL
  MIC Coagulase Negative Staphylococcus (GC 4551): 1 to 2 µg/mL
  MIC Coagulase Negative Staphylococcus (GC 6257): 1 µg/mL (≈ 0.708 µM)
  MIC Staphylococcus aureus-SMITH (GC 4543): 1 to 2 µg/mL
  MIC Staphylococcus haemolyticus (GC 4546): 1 µg/mL (≈ 0.708 µM)
[2]; strain ATCC 29213
  MIC Staphylococcus aureus (ATCC 29213): 1 to 2 µg/mL
[2]; [7]
  MIC Staphylococcus aureus (ATCC 29213): 1 to 2 µg/mL
[2]; strain GC 1131
  MIC Staphylococcus aureus (GC 1131): 2 µg/mL (≈ 1.42 µM)
[2]; [8]
  MIC Staphylococcus aureus (GC 1131): 2 µg/mL (≈ 1.42 µM)
[2]; strain GC 3051
  MIC Staphylococcus aureus (GC 3051): 1 to 2 µg/mL
[2]; [9]
  MIC Staphylococcus aureus (GC 3051): 1 to 2 µg/mL
[2]; strain GC 3053
  MIC Staphylococcus aureus (GC 3053): 2 to 4 µg/mL
[2]; [10]
  MIC Staphylococcus aureus (GC 3053): 2 to 4 µg/mL
[2]; strain GC 4541
  MIC Staphylococcus aureus (GC 4541): 1 to 2 µg/mL
[2]; [11]
  MIC Staphylococcus aureus (GC 4541): 1 to 2 µg/mL
[2]; strain GC 4542
  MIC Staphylococcus aureus (GC 4542): 1 to 2 µg/mL
[2]; [12]
  MIC Staphylococcus aureus (GC 4542): 1 to 2 µg/mL
[2]; [13]
  MIC Staphylococcus aureus-SMITH (GC 4543): 1 to 2 µg/mL
[2]; strain GC 4544
  MIC Staphylococcus aureus (GC 4544): 2 µg/mL (≈ 1.42 µM)
[2]; [14]
  MIC Staphylococcus aureus (GC 4544): 2 µg/mL (≈ 1.42 µM)
[2]; strain GC 4545
  MIC Staphylococcus aureus (GC 4545): <2 to 4 µg/mL
[2]; [15]
  MIC Staphylococcus aureus (GC 4545): 2 to 4 µg/mL
[2]; [16]
  MIC Staphylococcus haemolyticus (GC 4546): 1 µg/mL (≈ 0.708 µM)
[2]; [17]
  MIC Coagulase Negative Staphylococcus (GC 4547): 1 to 2 µg/mL
[2]; [18]
  MIC Coagulase Negative Staphylococcus (GC 4548): 0.5 to 2 µg/mL
[2]; [19]
  MIC Coagulase Negative Staphylococcus (GC 4549): 0.5 to 1 µg/mL
[2]; [20]
  MIC Coagulase Negative Staphylococcus (GC 4551): 1 to 2 µg/mL
[2]; [21]
  MIC Coagulase Negative Staphylococcus (GC 6257): 1 µg/mL (≈ 0.708 µM)
[3]; [6]
  MIC Enterococccus avium (GC 4558): 4 to 8 µg/mL
  MIC Enterococccus faecalis (ATCC 29212): 4 to 8 µg/mL
  MIC Enterococccus faecalis (GC 2691): 4 to 8 µg/mL
  MIC Enterococccus faecalis (GC 3059): 4 to 8 µg/mL
  MIC Enterococccus faecalis (GC 4552): 4 to 8 µg/mL
  MIC Enterococccus faecalis (GC 4553): 4 to 8 µg/mL
  MIC Enterococccus faecalis (GC 4554): 4 to 8 µg/mL
  MIC Enterococccus faecalis (GC 6189): 4 µg/mL (≈ 2.83 µM)
  MIC Enterococccus faecium (GC 2243): 4 to 8 µg/mL
  MIC Enterococccus faecium (GC 4556): 4 to 8 µg/mL
  MIC Enterococccus faecium (GC 4557): 2 to 4 µg/mL
  MIC Enterococcus faecalis (GC 2242): 4 to 8 µg/mL
[4]; [22]
  MIC Escherichia coli (ATCC 25922): 64 µg/mL (≈ 45.3 µM)
  MIC Escherichia coli (GC 4560): 1 µg/mL (≈ 0.708 µM)
[5]; [6]
  MIC Streptococcus agalactiae (GC 4564): 0.5 µg/mL (≈ 0.354 µM)
  MIC Streptococcus pneumoniae (GC 1894): <0.06 µg/mL
  MIC Streptococcus pneumoniae (GC 4565): 0.25 µg/mL (≈ 0.177 µM)
  MIC Streptococcus pneumonine (ATCC 6301): 0.12 µg/mL (≈ 0.0849 µM)
  MIC Streptococcus pyogenes (GC 4563): 0.25 µg/mL (≈ 0.177 µM)

## CC(c1ccccc1)C1NC(=O)CNC(=O)C(CO)NC(=O)C(C(O)C2CNC(=N)N2C2OC(CO)C(O)C(O)C2O)NC(=O)C(C(O)C2CNC(=N)N2)NC(=O)C(Cc2ccc(OC3OC(CO)C(OC4OC5COC(c6ccc7c(c6)OCO7)OC5C(O)C4O)C(O)C3O)cc2)NC1=O (stereo not drawn) [Example 143, Cyclo[glycyl-β-methylphenylalanyl-O-[4-O-[4,6-O-(1,3-benzodioxol-5-ylmethylene)hexopyranosyl]hexopyranosyl]tyrosyl-3-(2-iminoimidazolidin-4-yl)seryl-3-(3-hexopyranosyl-2-iminoimidazolidin-4-yl)serylseryl]]
[1]
  median effective dose (ED50), Staphylococcus aureus-SMITH (GC 4543): 0.28 mg/kg
[2]; [6]
  MIC Coagulase Negative Staphylococcus (GC 4547): 1 to 2 µg/mL
  MIC Coagulase Negative Staphylococcus (GC 4548): 1 to 2 µg/mL
  MIC Coagulase Negative Staphylococcus (GC 4549): 1 µg/mL (≈ 0.701 µM)
  MIC Coagulase Negative Staphylococcus (GC 4551): 2 to 4 µg/mL
  MIC Coagulase Negative Staphylococcus (GC 6257): 1 to 2 µg/mL
  MIC Staphylococcus aureus (ATCC 29213): 2 to 4 µg/mL
  MIC Staphylococcus aureus (GC 1131): 2 to 4 µg/mL
  MIC Staphylococcus aureus (GC 3051): 2 to 4 µg/mL
  MIC Staphylococcus aureus (GC 3053): 4 to 8 µg/mL
  MIC Staphylococcus aureus (GC 4541): 2 to 4 µg/mL
  MIC Staphylococcus aureus (GC 4542): 1 to 4 µg/mL
  MIC Staphylococcus aureus (GC 4544): 2 to 8 µg/mL
  MIC Staphylococcus aureus (GC 4545): 2 to 4 µg/mL
  MIC Staphylococcus aureus-SMITH (GC 4543): 2 to 4 µg/mL
  MIC Staphylococcus haemolyticus (GC 4546): 0.5 to 2 µg/mL
[2]; [7]
  MIC Staphylococcus aureus (ATCC 29213): 2 to 4 µg/mL
[2]; [8]
  MIC Staphylococcus aureus (GC 1131): 2 to 4 µg/mL
[2]; [9]
  MIC Staphylococcus aureus (GC 3051): 2 to 4 µg/mL
[2]; [10]
  MIC Staphylococcus aureus (GC 3053): 4 to 8 µg/mL
[2]; [11]
  MIC Staphylococcus aureus (GC 4541): 2 to 4 µg/mL
[2]; [12]
  MIC Staphylococcus aureus (GC 4542): 1 to 4 µg/mL
[2]; [13]
  MIC Staphylococcus aureus-SMITH (GC 4543): 2 to 4 µg/mL
[2]; [14]
  MIC Staphylococcus aureus (GC 4544): 2 to 8 µg/mL
[2]; [15]
  MIC Staphylococcus aureus (GC 4545): 2 to 4 µg/mL
[2]; [16]
  MIC Staphylococcus haemolyticus (GC 4546): 0.5 to 2 µg/mL
[2]; [17]
  MIC Coagulase Negative Staphylococcus (GC 4547): 1 to 2 µg/mL
[2]; [18]
  MIC Coagulase Negative Staphylococcus (GC 4548): 1 to 2 µg/mL
[2]; [19]
  MIC Coagulase Negative Staphylococcus (GC 4549): 1 µg/mL (≈ 0.701 µM)
[2]; [20]
  MIC Coagulase Negative Staphylococcus (GC 4551): 2 to 4 µg/mL
[2]; [21]
  MIC Coagulase Negative Staphylococcus (GC 6257): 1 to 2 µg/mL
[3]; strain GC 2691
  MIC Enterococcus faecalis (GC 2691): 8 µg/mL (≈ 5.6 µM)
[3]; strain GC 4557
  MIC Enterococcus faecium (GC 4557): 2 to 8 µg/mL
[4]; strain ATCC 25922
  MIC Escherichia coli (ATCC 25922): >64 µg/mL
[4]; strain GC 4559
  MIC Escherichia coli (GC 4559): 64 µg/mL (≈ 44.8 µM)
[4]; strain GC 4560
  MIC Escherichi coli (GC 4560): 1 to 2 µg/mL
[5]; strain GC 4564
  MIC Streptococcus agalactiae (GC 4564): 0.5 to 1 µg/mL
